# Test system: diabetic mice
# Experiment: Radial arm maze in STZ induced diabetic mice
# Format: in vivo
# Experimental: Male laca mice weighing between 28-32 g were procured from the Central Animal House, Panjab University, Chandigarh. The animals were acclimatized and were fed with standard pellet diet and water ad libitum. The experimental protocols were approved by the Institutional Ethics Committee and were conducted according to Indian National Science Academy (INSA) guidelines for the use and care of experimental animals. The animals were divided into four groups: (i) Control animals received phosphate buffered saline (PBS) throughout the study; (ii) Control+GSNO animals were administered with GSNO 100 μg/kg body weight orally, dissolved in PBS after every 24 h for 8 weeks; (iii) Diabetic animals were injected with STZ at a dose of 40 mg/kg body weight intraperitoneally for 5 days dissolved in 0.1 mol/L citrate buffer, pH 4.5 and Diabetic+GSNO mice were administered GSNO 100 μg/kg body weight orally dissolved in PBS after every 24 h for 8 weeks after the induction of diabetes. Animals were assessed weekly for development of diabetic encephalopathy in terms of memory deficits. All experimental procedures were done on mice at the end of study. Radial arm maze was used to assess specific learning and memory in the radial arm maze (Veena et al., 2009). Its apparatus consisted of equally spaced arms (35×9×5 cm) radiating from an octagonal central platform, and the maze was kept 80 cm elevated from the ground. Prior to the acquisition, all the arms were baited and mice were allowed to explore the maze for 10 min and were subjected to two such acclimatization sessions on consecutive days. […] An arm choice was recorded when the animal reached the end of an arm. An arm entry was counted when all four paws entered the arm. […] After acquisition period, animals were evaluated for retention of the task. […] The data were analyzed for the number of reference memory errors (exploring an arm never baited), working memory errors (exploring a baited arm already visited), total number of errors, memory retention and % correct choice.
# [1] = diabetic mice, GSNO 100 μg/kg body weight orally daily for 8 weeks, vs diabetic group
structure (smiles),measurement,setting,value
"N[C@@H](CCC(=O)N[C@@H](CSN=O)C(=O)NCC(=O)O)C(=O)O [GSNO, S-nitrosoglutathione]",increase in the percentage of correct choices,[1],30%
same,lowered number of errors,[1],44%
same,radial arm maze parameters of GSNO-treated control mice,"non-diabetic control mice, GSNO 100 μg/kg orally for 8 weeks, vs control mice",not significantly different from control mice
